# PubChem BioAssay (NCI)
#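 Interpolation was linear, between the two tested concentrations surrounding the appropriate level; five concentrations were tested over 48 hours in 96-well plates. GI50 = concentration required for 50% inhibition of growth. TGI denotes the concentration required for complete inhibition of growth.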
# Legend:
# Experiment in all cases: inhibition of tumour cell growth, NCI panel, 48 h
# SR leukemia = system: SR leukemia
# CCRF-CEM leukemia = system: CCRF-CEM leukemia
# SK-MEL-5 melanoma = system: SK-MEL-5 melanoma
# KM12 colon = system: KM12 colon
# HCC-2998 colon = system: HCC-2998 colon
# SK-MEL-28 melanoma = system: SK-MEL-28 melanoma
# HL-60(TB) leukemia = system: HL-60(TB) leukemia
# PC-3 prostate = system: PC-3 prostate
# UACC-257 melanoma = system: UACC-257 melanoma
# CAKI-1 renal = system: CAKI-1 renal
# SF-539 CNS = system: SF-539 CNS
# SW-620 colon = system: SW-620 colon
# MDA-MB-231 breast = system: MDA-MB-231 breast
# OVCAR-5 ovarian = system: OVCAR-5 ovarian
# DU-145 prostate = system: DU-145 prostate
# HS 578T breast = system: HS 578T breast
# COLO 205 colon = system: COLO 205 colon
# NCI/ADR-RES ovarian = system: NCI/ADR-RES ovarian
# HCT-116 colon = system: HCT-116 colon
# BT-549 breast = system: BT-549 breast
# NCI-H522 lung = system: NCI-H522 lung
# MCF7 breast = system: MCF7 breast
# RXF 393 renal = system: RXF 393 renal
# HT29 colon = system: HT29 colon
# NCI-H23 lung = system: NCI-H23 lung
# SF-295 CNS = system: SF-295 CNS
# K-562 leukemia = system: K-562 leukemia
# SF-268 CNS = system: SF-268 CNS
# NCI-H226 lung = system: NCI-H226 lung
# ACHN renal = system: ACHN renal
# HCT-15 colon = system: HCT-15 colon
# SN12C renal = system: SN12C renal
# OVCAR-4 ovarian = system: OVCAR-4 ovarian
# A549 NSCLC = system: A549 NSCLC
# OVCAR-8 ovarian = system: OVCAR-8 ovarian
# T-47D breast = system: T-47D breast
# UO-31 renal = system: UO-31 renal
# M14 melanoma = system: M14 melanoma
# NCI-H460 lung = system: NCI-H460 lung
# TK-10 renal = system: TK-10 renal
# MALME-3M melanoma = system: MALME-3M melanoma
# IGROV1 ovarian = system: IGROV1 ovarian
# SNB-75 CNS = system: SNB-75 CNS
# HOP-62 NSCLC = system: HOP-62 NSCLC
# MOLT-4 leukemia = system: MOLT-4 leukemia
# SNB-19 CNS = system: SNB-19 CNS
# 786-0 renal = system: 786-0 renal
# UACC-62 melanoma = system: UACC-62 melanoma
# RPMI-8226 leukemia = system: RPMI-8226 leukemia
# MDA-MB-435 = system: MDA-MB-435
# A498 renal = system: A498 renal
# OVCAR-3 ovarian = system: OVCAR-3 ovarian
# SK-OV-3 ovarian = system: SK-OV-3 ovarian
compound,measurement,setting,value
COc1cc(/C=C/C(=O)c2ccccc2)cc(OC)c1OC,GI50,SR leukemia,2330 nM
same,TGI,SR leukemia,6.68 µM
same,GI50,CCRF-CEM leukemia,1490 nM
same,TGI,CCRF-CEM leukemia,5.89 µM
same,GI50,SK-MEL-5 melanoma,4.12 µM
same,TGI,SK-MEL-5 melanoma,15 µM
same,GI50,KM12 colon,3.22 µM
same,TGI,KM12 colon,10.2 µM
same,GI50,HCC-2998 colon,12.3 µM
same,TGI,HCC-2998 colon,25.6 µM
same,GI50,SK-MEL-28 melanoma,2290 nM
same,TGI,SK-MEL-28 melanoma,5.75 µM
same,GI50,HL-60(TB) leukemia,2560 nM
same,TGI,HL-60(TB) leukemia,6.82 µM
same,GI50,PC-3 prostate,4.54 µM
same,TGI,PC-3 prostate,17.9 µM
same,GI50,UACC-257 melanoma,3.7 µM
same,TGI,UACC-257 melanoma,15 µM
same,GI50,CAKI-1 renal,5.61 µM
same,TGI,CAKI-1 renal,19.9 µM
same,GI50,SF-539 CNS,2960 nM
same,TGI,SF-539 CNS,10.1 µM
same,GI50,SW-620 colon,2480 nM
same,TGI,SW-620 colon,7.2 µM
same,GI50,MDA-MB-231 breast,5.61 µM
same,TGI,MDA-MB-231 breast,20 µM
same,GI50,OVCAR-5 ovarian,3.95 µM
same,TGI,OVCAR-5 ovarian,16.6 µM
same,GI50,DU-145 prostate,4.92 µM
same,TGI,DU-145 prostate,16.4 µM
same,GI50,HS 578T breast,4.62 µM
same,TGI,HS 578T breast,39.8 µM
same,GI50,COLO 205 colon,9.32 µM
same,TGI,COLO 205 colon,21.7 µM
same,GI50,NCI/ADR-RES ovarian,3.38 µM
same,TGI,NCI/ADR-RES ovarian,15 µM
same,GI50,HCT-116 colon,1980 nM
same,TGI,HCT-116 colon,4.07 µM
same,GI50,BT-549 breast,3.79 µM
same,TGI,BT-549 breast,11.2 µM
same,GI50,NCI-H522 lung,1950 nM
same,TGI,NCI-H522 lung,3.88 µM
same,GI50,MCF7 breast,398 nM
same,TGI,MCF7 breast,10.3 µM
same,GI50,RXF 393 renal,3.11 µM
same,TGI,RXF 393 renal,11.5 µM
same,GI50,HT29 colon,2470 nM
same,TGI,HT29 colon,5.37 µM
same,GI50,NCI-H23 lung,7.45 µM
same,TGI,NCI-H23 lung,23.3 µM
same,GI50,SF-295 CNS,10.3 µM
same,TGI,SF-295 CNS,24.2 µM
same,GI50,K-562 leukemia,3.23 µM
same,TGI,K-562 leukemia,10.7 µM
same,GI50,SF-268 CNS,4.2 µM
same,TGI,SF-268 CNS,17.5 µM
same,GI50,NCI-H226 lung,2960 nM
same,TGI,NCI-H226 lung,14.3 µM
same,GI50,ACHN renal,2310 nM
same,TGI,ACHN renal,6.29 µM
same,GI50,HCT-15 colon,1990 nM
same,TGI,HCT-15 colon,5.26 µM
same,GI50,SN12C renal,2940 nM
same,TGI,SN12C renal,10.9 µM
same,GI50,OVCAR-4 ovarian,4.53 µM
same,TGI,OVCAR-4 ovarian,19.4 µM
same,GI50,A549 NSCLC,6.14 µM
same,TGI,A549 NSCLC,23 µM
same,GI50,OVCAR-8 ovarian,2950 nM
same,TGI,OVCAR-8 ovarian,11.8 µM
same,GI50,T-47D breast,3.93 µM
same,TGI,T-47D breast,20.9 µM
same,GI50,UO-31 renal,1860 nM
same,TGI,UO-31 renal,3.78 µM
same,GI50,M14 melanoma,3.27 µM
same,TGI,M14 melanoma,11.6 µM
same,GI50,NCI-H460 lung,2250 nM
same,TGI,NCI-H460 lung,5.91 µM
same,GI50,TK-10 renal,10.2 µM
same,TGI,TK-10 renal,22.2 µM
same,GI50,MALME-3M melanoma,4.83 µM
same,TGI,MALME-3M melanoma,19.7 µM
same,GI50,IGROV1 ovarian,4.04 µM
same,TGI,IGROV1 ovarian,14.2 µM
same,GI50,SNB-75 CNS,10.2 µM
same,TGI,SNB-75 CNS,22.2 µM
same,GI50,HOP-62 NSCLC,6.06 µM
same,TGI,HOP-62 NSCLC,19.7 µM
same,GI50,MOLT-4 leukemia,2940 nM
same,TGI,MOLT-4 leukemia,8.13 µM
same,GI50,SNB-19 CNS,12.8 µM
same,TGI,SNB-19 CNS,26.8 µM
same,GI50,786-0 renal,2740 nM
same,TGI,786-0 renal,7.36 µM
same,GI50,UACC-62 melanoma,2230 nM
same,TGI,UACC-62 melanoma,5.7 µM
same,GI50,RPMI-8226 leukemia,2380 nM
same,TGI,RPMI-8226 leukemia,6.29 µM
same,GI50,MDA-MB-435,3.06 µM
same,TGI,MDA-MB-435,11.3 µM
same,GI50,A498 renal,12.3 µM
same,TGI,A498 renal,25.3 µM
same,GI50,OVCAR-3 ovarian,4.02 µM
same,TGI,OVCAR-3 ovarian,12.9 µM
same,GI50,SK-OV-3 ovarian,4.42 µM
same,TGI,SK-OV-3 ovarian,13.8 µM
